Entries after “also recorded” stand apart in the source; their conditions may differ.
How the values were obtained:
[1] = biological target: T1, human NTPDase2 (Homo sapiens, UniProt Q9Y5L3); settings: analogue 100 μM as substrate; activity with 100 μM ATP set as 100%
T1 sequence (Q9Y5L3 1-495): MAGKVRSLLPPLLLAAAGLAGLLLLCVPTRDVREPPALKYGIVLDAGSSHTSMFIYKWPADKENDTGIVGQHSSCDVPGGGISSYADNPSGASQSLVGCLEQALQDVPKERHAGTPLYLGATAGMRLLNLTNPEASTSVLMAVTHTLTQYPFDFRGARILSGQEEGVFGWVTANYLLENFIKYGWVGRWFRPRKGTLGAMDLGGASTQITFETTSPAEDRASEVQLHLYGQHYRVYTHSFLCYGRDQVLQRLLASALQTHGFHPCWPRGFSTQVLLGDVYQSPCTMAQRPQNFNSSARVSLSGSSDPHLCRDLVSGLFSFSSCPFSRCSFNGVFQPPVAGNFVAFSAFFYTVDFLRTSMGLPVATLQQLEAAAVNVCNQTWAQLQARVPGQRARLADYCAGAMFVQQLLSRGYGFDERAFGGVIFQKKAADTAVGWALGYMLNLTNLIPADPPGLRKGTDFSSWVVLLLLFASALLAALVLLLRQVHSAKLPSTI

[2] = biological target: P2Y2 receptor (Homo sapiens, UniProt P41231); assay: [Ca2+]i response in 1321N1 astrocytoma cells expressing GFP-P2Y2 receptor; assay type: cell-based; settings: for agonist activity at P2Y2R: 100 μM; for inhibition of the typical response to UTP at P2Y2R: 1321N1 cells (data not shown)
[3] = biological target: T2, human NTPDase1 (Homo sapiens, UniProt P49961); assay: Inhibition of NTPDase1 activity; assay type: biochemical; settings: analogue 100 μM, substrate ATP 100 μM
T2 sequence (P49961 1-510): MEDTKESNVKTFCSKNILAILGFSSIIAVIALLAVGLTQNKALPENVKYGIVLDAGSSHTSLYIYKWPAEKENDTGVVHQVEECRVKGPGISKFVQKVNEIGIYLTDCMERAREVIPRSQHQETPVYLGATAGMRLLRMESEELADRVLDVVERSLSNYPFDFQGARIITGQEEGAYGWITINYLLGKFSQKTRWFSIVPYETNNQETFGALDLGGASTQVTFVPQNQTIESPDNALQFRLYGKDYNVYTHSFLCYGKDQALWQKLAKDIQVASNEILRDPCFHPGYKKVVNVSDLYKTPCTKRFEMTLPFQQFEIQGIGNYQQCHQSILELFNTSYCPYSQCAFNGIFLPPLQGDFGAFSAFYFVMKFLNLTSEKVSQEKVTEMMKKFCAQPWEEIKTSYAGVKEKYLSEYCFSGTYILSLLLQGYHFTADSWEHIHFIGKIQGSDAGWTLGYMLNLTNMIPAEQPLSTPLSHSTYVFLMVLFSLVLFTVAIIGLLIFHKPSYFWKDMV

[4] = biological target: T2, human NTPDase1; settings: analogue 100 μM as substrate; activity with 100 μM ATP set as 100%
[5] = biological target: T3, human NPP1 (Homo sapiens, UniProt P22413); assay: Inhibition of NPP1, pNP-TMP as substrate; assay type: biochemical; settings: Dixon and Cornish–Bowden methods
T3 sequence (P22413 1-925): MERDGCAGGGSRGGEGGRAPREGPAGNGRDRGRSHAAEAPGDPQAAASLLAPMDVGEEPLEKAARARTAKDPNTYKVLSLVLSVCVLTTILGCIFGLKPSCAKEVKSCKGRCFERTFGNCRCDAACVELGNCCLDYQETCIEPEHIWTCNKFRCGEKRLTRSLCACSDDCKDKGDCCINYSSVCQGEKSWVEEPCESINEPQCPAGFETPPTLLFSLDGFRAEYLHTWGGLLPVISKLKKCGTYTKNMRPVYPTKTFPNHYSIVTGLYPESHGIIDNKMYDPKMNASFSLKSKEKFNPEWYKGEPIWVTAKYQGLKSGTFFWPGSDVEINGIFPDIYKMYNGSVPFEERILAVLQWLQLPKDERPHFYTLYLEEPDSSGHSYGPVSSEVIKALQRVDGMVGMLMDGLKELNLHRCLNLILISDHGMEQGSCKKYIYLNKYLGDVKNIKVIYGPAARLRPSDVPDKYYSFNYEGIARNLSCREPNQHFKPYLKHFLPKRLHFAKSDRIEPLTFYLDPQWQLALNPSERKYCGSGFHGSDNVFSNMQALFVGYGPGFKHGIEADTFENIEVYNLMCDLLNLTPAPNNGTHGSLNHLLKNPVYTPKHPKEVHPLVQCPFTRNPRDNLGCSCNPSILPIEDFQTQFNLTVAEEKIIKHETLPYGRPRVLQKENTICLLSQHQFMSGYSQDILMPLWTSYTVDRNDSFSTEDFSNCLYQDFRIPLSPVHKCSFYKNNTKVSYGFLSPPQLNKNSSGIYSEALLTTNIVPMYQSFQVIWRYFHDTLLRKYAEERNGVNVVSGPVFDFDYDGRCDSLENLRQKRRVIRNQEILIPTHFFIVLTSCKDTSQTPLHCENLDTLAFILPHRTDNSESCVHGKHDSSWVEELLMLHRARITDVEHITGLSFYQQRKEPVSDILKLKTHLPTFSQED

[6] = biological target: T4, P2Y11 receptor (Homo sapiens, UniProt Q96G91); assay: [Ca2+]i elevation in 1321N1 astrocytoma cells expressing GFP-P2Y11 receptor; assay type: cell-based; settings: 1321N1 cells; nr = no response up to 10 μM
T4 sequence (Q96G91 1-374): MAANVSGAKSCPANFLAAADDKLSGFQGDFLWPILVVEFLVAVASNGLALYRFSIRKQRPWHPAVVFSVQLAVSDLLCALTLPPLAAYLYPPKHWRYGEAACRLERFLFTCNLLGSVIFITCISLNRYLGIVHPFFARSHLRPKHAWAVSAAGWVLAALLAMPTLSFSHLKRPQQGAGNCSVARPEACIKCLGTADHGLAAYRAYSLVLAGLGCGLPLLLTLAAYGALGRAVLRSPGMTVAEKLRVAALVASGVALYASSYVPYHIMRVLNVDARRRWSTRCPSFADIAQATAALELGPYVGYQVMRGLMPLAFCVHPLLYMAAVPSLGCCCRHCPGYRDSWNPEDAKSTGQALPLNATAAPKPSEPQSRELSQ

[7] = test system: human NTPDase1,2,3,8; assay: Inhibition of NTPDase activity, text statements pooled over NTPDase1,2,3,8; assay type: biochemical; settings: analogue 100 μM, pooled over four NTPDases

P2Y2 receptor, sequence (P41231 whole entry): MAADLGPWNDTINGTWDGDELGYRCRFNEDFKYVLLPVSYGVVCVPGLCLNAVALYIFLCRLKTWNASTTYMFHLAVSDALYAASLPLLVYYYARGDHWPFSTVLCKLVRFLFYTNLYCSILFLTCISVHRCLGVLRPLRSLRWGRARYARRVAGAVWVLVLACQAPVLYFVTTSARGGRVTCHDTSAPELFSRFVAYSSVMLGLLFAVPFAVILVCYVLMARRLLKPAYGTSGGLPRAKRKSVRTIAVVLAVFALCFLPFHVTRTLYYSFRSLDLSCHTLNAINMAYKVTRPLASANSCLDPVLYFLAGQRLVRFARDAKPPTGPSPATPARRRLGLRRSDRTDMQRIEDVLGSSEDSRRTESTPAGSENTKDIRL

SMILES	relative activity (%) ± SD of ATP hydrolysis, NTPDase2 [1] [%]	agonist activity at P2Y2R [2]	inhibition of the typical response to UTP at P2Y2R [2]	inhibition (%) ± SD, human NTPDase1 [3] [%]	relative activity (%) ± SD of ATP hydrolysis, NTPDase1 [4] [%]	type of inhibition [5]	EC50 ± SEM (μM), [Ca^2+]i elevation, P2Y11 [6]	inhibition of ATP hydrolysis by NTPDase1,2,3,8 [7]
Nc1ncnc2c1ncn2[C@@H]1O[C@H](COP(=O)(O)CP(=O)(O)OP(O)(O)=S)[C@@H](O)[C@H]1O [compound 3]	4.7 ± 0.2	no activity	did not inhibit	60	5.3 ± 0.2	mixed-type inhibition, predominantly competitive	–	–
Nc1ncnc2c1ncn2[C@@H]1O[C@H](CO[P@](O)(=S)OP(=O)(O)C(Cl)(Cl)P(=O)(O)O)[C@@H](O)[C@H]1O [2a]	5.2 ± 0.1	no activity	did not inhibit	–	5.3 ± 0.2	mixed-type inhibition, predominantly competitive	not agonists; also recorded: inactive; also recorded: not active, nr ^c	did not interfere
